Measurements taken from patent publication US20240315989A1 (priority 2021, published 2024).

Assays:
σ1 site [1] = target: T1, σ1 site (Homo sapiens, UniProt Q99720); details: read-out: Affinity for σ1 Site (Ki or KD values); cited from earlier work
σ1 site [2] = target: T1, σ1 site; details: cited from earlier work
SARS-CoV-2 infection = assay: Retrospective cohort (BJC Healthcare): antidepressant exposure and ED or hospital encounter within 30 days; type: in vivo, human; details: for Unadjusted Odds Ratio, ED or hospital encounter within 30 days / Adjusted Odds Ratio, ED or hospital encounter within 30 days: vs No Antidepressant (Ref); for Unadjusted Odds Ratio, ED or hospital encounter within 30 days: logistic regression; for Adjusted Odds Ratio, ED or hospital encounter within 30 days: multivariable logistic regression, complete cases
[3] = share of exposed outpatients with an encounter after a positive SARS-CoV-2 test

T1 sequence (Q99720 whole entry): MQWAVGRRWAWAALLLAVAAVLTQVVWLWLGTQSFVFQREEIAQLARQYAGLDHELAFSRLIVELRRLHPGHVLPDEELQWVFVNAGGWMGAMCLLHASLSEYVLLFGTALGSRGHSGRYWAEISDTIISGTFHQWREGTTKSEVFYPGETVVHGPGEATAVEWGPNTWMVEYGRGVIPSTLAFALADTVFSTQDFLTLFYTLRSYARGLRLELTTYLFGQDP

| Compound | Ki (σ1 site [1]) | Function on σ1 Site (σ1 site [2]) | also measured |
| --- | --- | --- | --- |
| COC(=O)C1(c2ccc(C)cc2)CC1CN1CCC(O)(c2ccccc2)CC1 (single isomer, unassigned; (+)) [(+)-MR 200] | < 50 nM | Antagonist |  |
| CC(C)=CCN1CCC2(C)c3cc(O)ccc3CC1C2C (single isomer, unassigned; (+)) [(+)-Pentazocine] |  | Agonist |  |
| CC(C)=CCN1CCC2(C)c3cc(O)ccc3CC1C2C (single isomer, unassigned; (-)) [(−)-Pentazocine] |  | Agonist |  |
| O=C(NC1CCN(Cc2ccccc2)CC1)c1ccc(I)cc1 [4-IBP] | < 50 nM | Agonist |  |
| CCCN1CCC[C@H](c2cccc(O)c2)C1 [(+)-3-PPP] |  | Agonist |  |
| NC12CC3CC(CC(C3)C1)C2 [Amantadine] |  | Agonist^? |  |
| CN(C)CCN(C)CCc1ccc(Cl)c(Cl)c1 [BD 1047] |  | Antagonist |  |
| CN1CCN(CCc2ccc(Cl)c(Cl)c2)CC1 [BD 1063] | < 50 nM | Antagonist |  |
| OC(CCCN1CCN(c2ncc(F)cn2)CC1)c1ccc(F)cc1 (centres unmarked) [BMY 14802] |  | Antagonist |  |
| CCN(CC)CCOCCOC(=O)C1(c2ccccc2)CCCC1 [Carbetapentane] | < 50 nM | Agonist |  |
| C#CCN(C)CCCOc1ccc(Cl)cc1Cl [Clorgyline] | < 50 nM | Agonist^? |  |
| COC(=O)[C@H]1[C@@H](OC(=O)c2ccccc2)C[C@@H]2CC[C@H]1N2C [Cocaine] | < 10000 nM |  |  |
| C[C@]12CC[C@H](OS(=O)(=O)O)CC1=CC[C@@H]1[C@@H]2CC[C@]2(C)C(=O)CC[C@@H]12 [DHEAS] | < 10000 nM | Agonist |  |
| CN(C)CC(c1ccc(O)cc1)C1(O)CCCCC1 (centres unmarked) [Desvenlafaxine] |  |  | ED or hospital encounter within 30 days, % (SARS-CoV-2 infection; [3]): 18.7%; Unadjusted Odds Ratio, ED or hospital encounter within 30 days (SARS-CoV-2 infection): 2.15; Adjusted Odds Ratio, ED or hospital encounter within 30 days (SARS-CoV-2 infection): 0.95 |
| Cc1ccc2c(c1)[C@]13CCCC[C@@H]1[C@H](C2)N(C)CC3 [Dimemorfan] | < 500 nM | Agonist |  |
| COc1cc2c(cc1OC)C(=O)C(CC1CCN(Cc3ccccc3)CC1)C2 (centres unmarked) [Donepezil] | < 50 nM | Agonist |  |
| CN(C)CCC=C1c2ccccc2COc2ccccc21 [Doxepin] |  |  | ED or hospital encounter within 30 days, % (SARS-CoV-2 infection; [3]): 27.5%; Unadjusted Odds Ratio, ED or hospital encounter within 30 days (SARS-CoV-2 infection): 3.55; Adjusted Odds Ratio, ED or hospital encounter within 30 days (SARS-CoV-2 infection): 1.10 |
| CNCC[C@H](Oc1cccc2ccccc12)c1cccs1 [Duloxetine] |  |  | ED or hospital encounter within 30 days, % (SARS-CoV-2 infection; [3]): 21.8%; Unadjusted Odds Ratio, ED or hospital encounter within 30 days (SARS-CoV-2 infection): 2.61; Adjusted Odds Ratio, ED or hospital encounter within 30 days (SARS-CoV-2 infection): 0.95 |
| O=C(CC1CCN(CC2CC2)CC1)c1ccc(F)cc1 [Dup 734] | < 50 nM |  |  |
| Fc1ccc(C2=CCN(CCCCn3cncn3)CC2)cc1.O=C(O)CC(O)(CC(=O)O)C(=O)O [E-5842] | < 50 nM | Antagonist |  |
| OC(CN1CCC(Cc2ccc(F)cc2)CC1)c1ccc(Cl)cc1 (centres unmarked) [Eliprodil (SL-82.0715), Eliprodil] | < 500 nM |  |  |
| OC(CCCN1CCC(O)(c2ccc(Cl)cc2)CC1)c1ccc(F)cc1 (centres unmarked) [Haloperidol Metabolite II] |  | Irreversible |  |
| OC1(c2ccc(Cl)cc2)CCNCC1 [Haloperidol Metabolite I] | < 500 nM | Antagonist |  |
| CCC(C/C=C/c1ccccc1)(c1ccccc1)N(C)CC1CC1 (centres unmarked) [JO-1784 (Igmesine), Igmesine] | < 50 nM | Agonist |  |
| CCN(CC)C(=O)[C@@]1(c2ccccc2)C[C@H]1CN [Levomilnacipran] |  |  | ED or hospital encounter within 30 days, % (SARS-CoV-2 infection; [3]): 20.0% |

| Compound | Ki (σ1 site [1]) | Function on σ1 Site (σ1 site [2]) | also measured |
| --- | --- | --- | --- |
| CNC(C)Cc1ccc2c(c1)OCO2 (centres unmarked) [MDMA] | < 10000 nM |  |  |
| COCCN1CCN(C[C@H]2CCN(c3ccc(Cl)cc3)C2=O)CC1.O=C(O)C(O)C(O)C(=O)O [MS-377] | < 50 nM | Antagonist |  |
| CC12CC3CC(C)(C1)CC(N)(C3)C2 [Memantine] | < 10000 nM | Agonist^? |  |
| CN[C@@H](C)Cc1ccccc1 [Metamphetamine] | < 10000 nM |  |  |
| S=C=Nc1cccc(C2(N3CCCCC3)CCCCC2)c1 [Metaphit] | < 500 nM | Irreversible |  |
| CN1CCN2c3ncccc3Cc3ccccc3C2C1 (centres unmarked) [Mirtazapine] |  |  | ED or hospital encounter within 30 days, % (SARS-CoV-2 infection; [3]): 27.9% |
| CCCN(CCC)CCc1ccc(OC)c(OCCc2ccccc2)c1 [NE-100] |  | Antagonist |  |
| CCc1nn(CCCN2CCN(c3cccc(Cl)c3)CC2)c(=O)n1CCOc1ccccc1 [Nefazodone] |  |  | ED or hospital encounter within 30 days, % (SARS-CoV-2 infection; [3]): 0.0% |
| CNc1cc(OC)c(C(=O)NC2CCN(Cc3ccccc3)C2C)cc1Cl (centres unmarked) [Nemonapride] | < 50 nM |  |  |
| CNCCC=C1c2ccccc2CCc2ccccc21 [Nortriptyline] |  |  | ED or hospital encounter within 30 days, % (SARS-CoV-2 infection; [3]): 24.3%; Unadjusted Odds Ratio, ED or hospital encounter within 30 days (SARS-CoV-2 infection): 3.02; Adjusted Odds Ratio, ED or hospital encounter within 30 days (SARS-CoV-2 infection): 1.08 |
| COc1cccc2c1CCC(=O)N2CCCN1CCN(c2cccc(Cl)c2)CC1 [OPC-14523] | < 50 nM | Agonist |  |
| O=C(OCCN1CCOCC1)C1(c2ccccc2)CCCCC1 [PRE 084] |  | Agonist |  |
| O=C1NC(=O)C(c2ccccc2)(c2ccccc2)N1 [Phenytoin (DPH), Phenytoin] |  | Allosteric |  |
| CC(=O)[C@H]1CC[C@H]2[C@@H]3CCC4=CC(=O)CC[C@]4(C)[C@H]3CC[C@]12C [Progesterone] |  | Antagonist |  |
| C[C@@H]1CN(CCCn2c3ccccc3c3ccccc32)C[C@H](C)N1 [Rimcazole (BW-234U), Rimcazole] |  | Antagonist |  |
| Cc1cccc(/C=N/N2CCN(C(c3ccccc3)c3ccccc3)CC2)n1 [Ropizine] |  | Allosteric |  |
| O=c1n(CCCN2CCN(c3cccc(Cl)c3)CC2)nc2ccccn12 [Trazodone] |  |  | ED or hospital encounter within 30 days, % (SARS-CoV-2 infection; [3]): 22.6%; Unadjusted Odds Ratio, ED or hospital encounter within 30 days (SARS-CoV-2 infection): 2.74; Adjusted Odds Ratio, ED or hospital encounter within 30 days (SARS-CoV-2 infection): 0.99 |
| N#Cc1ccc2[nH]cc(CCCCN3CCN(c4ccc5oc(C(N)=O)cc5c4)CC3)c2c1 [Vilazodone] |  |  | ED or hospital encounter within 30 days, % (SARS-CoV-2 infection; [3]): 29.4%; Unadjusted Odds Ratio, ED or hospital encounter within 30 days (SARS-CoV-2 infection): 3.91; Adjusted Odds Ratio, ED or hospital encounter within 30 days (SARS-CoV-2 infection): 1.36 |
| Cc1ccc(Sc2ccccc2N2CCNCC2)c(C)c1 [Vortioxetine] |  |  | ED or hospital encounter within 30 days, % (SARS-CoV-2 infection; [3]): 14.3%; Unadjusted Odds Ratio, ED or hospital encounter within 30 days (SARS-CoV-2 infection): 1.56; Adjusted Odds Ratio, ED or hospital encounter within 30 days (SARS-CoV-2 infection): 0.58 |
| CC(NC(C)(C)C)C(=O)c1cccc(Cl)c1 (centres unmarked) [bupropion] |  |  | ED or hospital encounters within 30 days, % (SARS-CoV-2 infection; <20 mg fluoxetine-equivalent daily): 13.9%; ED or hospital encounter within 30 days, % (SARS-CoV-2 infection; [3]): 14.3%; ED or hospital encounters within 30 days, % (SARS-CoV-2 infection; ≥20 mg fluoxetine-equivalent daily): 15.0%; ED or hospital encounters within 30 days, % (SARS-CoV-2 infection; ≥40 mg fluoxetine-equivalent daily): 20.0% |
| CN(C)CCCC1(c2ccc(F)cc2)OCc2cc(C#N)ccc21 (centres unmarked) [citalopram] |  |  | ED or hospital encounter within 30 days, % (SARS-CoV-2 infection; [3]): 15.8% |
| CN(C)CCCN1c2ccccc2CCc2ccc(Cl)cc21 [clomipramine] |  |  | ED or hospital encounter within 30 days, % (SARS-CoV-2 infection; in vivo): 18.2% |
| CNCCCN1c2ccccc2CCc2ccccc21 [desipramine] |  |  | ED or hospital encounter within 30 days, % (SARS-CoV-2 infection; [3]): 10.0%; Unadjusted Odds Ratio, ED or hospital encounter within 30 days (SARS-CoV-2 infection): 1.04; Adjusted Odds Ratio, ED or hospital encounter within 30 days (SARS-CoV-2 infection): 0.24 |
| COc1ccc(C(CN(C)C)C2(O)CCCCC2)cc1 (centres unmarked) [venlafaxine] |  |  | ED or hospital encounter within 30 days, % (SARS-CoV-2 infection; [3]): 17.1%; Unadjusted Odds Ratio, ED or hospital encounter within 30 days (SARS-CoV-2 infection): 1.94; Adjusted Odds Ratio, ED or hospital encounter within 30 days (SARS-CoV-2 infection): 0.78 |
| Pregnenolone sulfate |  | Agonist |  |
